This passage reports EC50 and Ki results from patent EP2768830B1, “APOPTOSIS-INDUCING AGENTS FOR THE TREATMENT OF CANCER AND IMMUNE AND AUTOIMMUNE DISEASES” (AbbVie Inc., priority 2011, dated 2013).

Like-named read-outs stand apart in the source and are kept apart here. Bounds are passed on as bounds.

Assay [1] deals with mouse FL5.12 cells transfected with Bcl-XL. Description: FL5.12 cellular assay (cell viability, CellTiter-Glo).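 Further: each EC50 determination derived from duplicate measurements.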 The class given is cell-based. The conditions noted are these: FL5.12 cells transfected with Bcl-XL, IL-3-depleted, 3% FBS assay media, 24 hours, CellTiter-Glo, read-out: FL5.12 Bcl-xL, - IL3, EC 50. A general note: Cellular ATP, detected with luciferase, serves as a proxy for viable cell number.
Protocol: For assaying the compound activity, the cells were exchanged into an IL-3-depleted deprivation media, which was identical to the growth media except for the absence of FBS and WEHI-3B conditional media, for 2 days. Then the cells were exchanged to 3% FBS assay media (RPMI with 2 mM glutamine, 1% 100 mM sodium pyruvate, 2% 1 M HEPES, 4 µL/L of β-mercaptoethanol, 1% penicillin-streptomycin, 3% FBS). Compounds in series dilutions were added, and the cells were cultured for 24 hours. Compounds in series dilutions were added, and the cells were cultured for 24 hours. Cell viability was assayed using the CellTiter-Glo assay (Promega Corp., Madison, WI) according to the manufacturer instructions. Individual determinations were the result of duplicate values.

Assay [2] deals with GST-Bcl-xL (Homo sapiens, UniProt Q07817). The conditions noted are these: read-out: TR-FRET binding Bcl-xL Ki. (In general: Time-resolved FRET reads energy transfer from a long-lived donor to a nearby acceptor.)
GST-Bcl-xL, sequence (Q07817 whole entry): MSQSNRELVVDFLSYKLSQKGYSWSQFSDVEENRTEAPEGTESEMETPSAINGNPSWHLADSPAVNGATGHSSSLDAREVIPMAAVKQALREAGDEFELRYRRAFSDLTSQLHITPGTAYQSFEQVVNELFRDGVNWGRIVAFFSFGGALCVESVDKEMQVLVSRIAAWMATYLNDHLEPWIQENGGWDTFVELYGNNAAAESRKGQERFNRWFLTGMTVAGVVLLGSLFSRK

Turning to `Cc1c(-c2ccc(N3CCc4cccc(C(=O)Nc5nc6ccccc6s5)c4C3)nc2C(=O)O)cnn1CC1(N2CCOCC2)CCCCC1` [Example 160, 6-[8-(1,3-benzothiazol-2-ylcarbamoyl)-3,4-dihydroisoquinolin-2(1H)-yl]-3-(5-methyl-1-{[1-(morpholin-4-yl)cyclohexyl]methyl}-1H-pyrazol-4-yl)pyridine-2-carboxylic acid], in assay [1] (Mus musculus), the EC50 amounted to 0.014 µM. Also, in assay [2], the Ki (usually a dissociation constant, usually derived from enzyme kinetics or from competition with a known ligand) was under 0.0001 µM.

As for `Cc1nn(Cc2ccccc2)cc1-c1ccc(N2CCc3cccc(C(=O)Nc4nc5ccccc5s4)c3C2)nc1C(=O)O` [Example 19, 6-[8-(1,3-benzothiazol-2-ylcarbamoyl)-3,4-dihydroisoquinolin-2(1H)-yl]-3-(1-benzyl-3-methyl-1H-pyrazol-4-yl)pyridine-2-carboxylic acid], the EC50 in assay [1] (Mus musculus) turned out to be 0.398 µM. The Ki in assay [2] is 0.028 µM.

Turning to `CCOC(=O)c1nn(Cc2ccccc2)c(C)c1-c1ccc(N2CCc3cccc(C(=O)Nc4nc5ccccc5s4)c3C2)nc1C(=O)O` [Example 33, 6-[8-(1,3-benzothiazol-2-ylcarbamoyl)-3,4-dihydroisoquinolin-2(1H)-yl]-3-[1-benzyl-3-(ethoxycarbonyl)-5-methyl-1H-pyrazol-4-yl]pyridine-2-carboxylic acid], the EC50 in assay [1] (Mus musculus) was over 1 µM. Further, the Ki in assay [2] was found to be 0.169 µM.

On to `O=C(Nc1nc2ccccc2s1)c1cccc2c1CN(c1ccc(-c3ccc4c(c3)CCN(Cc3ccccn3)C4)c(C(=O)O)n1)CC2` [Example 136, 6-[8-(1,3-benzothiazol-2-ylcarbamoyl)-3,4-dihydroisoquinolin-2(1H)-yl]-3-[2-(pyridin-2-ylmethyl)-1,2,3,4-tetrahydroisoquinolin-6-yl]pyridine-2-carboxylic acid], for which the EC50 in assay [1] (Mus musculus) was over 1 µM. In addition, the Ki in assay [2] turned out to be 0.0014 µM.

Consider `Cc1ccc(Oc2ccccc2)cc1-c1ccc(N2CCc3cccc(C(=O)Nc4nc5ccccc5s4)c3C2)nc1C(=O)O` [Example 109, 6-[8-(1,3-benzothiazol-2-ylcarbamoyl)-3,4-dihydroisoquinolin-2(1H)-yl]-3-(2-methyl-5-phenoxyphenyl)pyridine-2-carboxylic acid], for which the EC50 in assay [1] (Mus musculus) is over 1 µM. Also, the Ki in assay [2] worked out at 0.049 µM.

Turning to `Cc1c(-c2ccc(N3CCc4cccc(C(=O)Nc5nc6ccccc6s5)c4C3)nc2C(=O)O)cnn1CC1CCCOC1` (stereo not shown) [Example 66, 6-[8-(1,3-benzothiazol-2-ylcarbamoyl)-3,4-dihydroisoquinolin-2(1H)-yl]-3-[5-methyl-1-(tetrahydro-2H-pyran-3-ylmethyl)-1H-pyrazol-4-yl]pyridine-2-carboxylic acid], the EC50 in assay [1] (Mus musculus) was found to be 0.06 µM. Besides, the inhibition constant Ki in assay [2] was found to be 0.003 µM.

With `Cc1c(OCC2CCCCC2)cccc1-c1ccc(N2CCc3cccc(C(=O)Nc4nc5ccccc5s4)c3C2)nc1C(=O)O` [Example 112, 6-[8-(1,3-benzothiazol-2-ylcarbamoyl)-3,4-dihydroisoquinolin-2(1H)-yl]-3-[3-(cyclohexylmethoxy)-2-methylphenyl]pyridine-2-carboxylic acid], the EC50 in assay [1] (Mus musculus) was determined as 0.523 µM. In addition, the Ki in assay [2] was found to be 0.0007 µM.

Turning to `CN(C)Cc1cccc(Cn2cc(-c3ccc(N4CCc5cccc(C(=O)Nc6nc7ccccc7s6)c5C4)nc3C(=O)O)cn2)c1` [Example 68, 6-[8-(1,3-benzothiazol-2-ylcarbamoyl)-3,4-dihydroisoquinolin-2(1H)-yl]-3-(1-{3-[(dimethylamino)methyl]benzyl}-1H-pyrazol-4-yl)pyridine-2-carboxylic acid], the EC50 in assay [1] (Mus musculus) is over 1 µM. Also, in assay [2], the Ki was 0.279 µM.

Turning to `O=C(Nc1nc2ccccc2s1)c1cccc2c1CN(c1ccc(-c3cnn(CCC4CCCCC4)c3)c(C(=O)O)n1)CC2` [Example 60, 6-[8-(1,3-benzothiazol-2-ylcarbamoyl)-3,4-dihydroisoquinolin-2(1H)-yl]-3-[1-(2-cyclohexylethyl)-1H-pyrazol-4-yl]pyridine-2-carboxylic acid], in assay [1] (Mus musculus), the EC50 was 0.219 µM. Moreover, the inhibition constant Ki in assay [2] amounted to 0.005 µM.

As to `O=C(Nc1nc2ccccc2s1)c1cccc2c1CN(c1ccc(-c3cnn(Cc4ccc5ccccc5c4)c3)c(C(=O)O)n1)CC2` [Example 28, 6-[8-(1,3-benzothiazol-2-ylcarbamoyl)-3,4-dihydroisoquinolin-2(1H)-yl]-3-[1-(naphthalen-2-ylmethyl)-1H-pyrazol-4-yl]pyridine-2-carboxylic acid], the EC50 in assay [1] (Mus musculus) is over 1 µM. The Ki in assay [2] amounted to 0.033 µM.

Take `Cc1c(-c2ccc(N3CCc4cccc(C(=O)Nc5nc6ccccc6s5)c4C3)nc2C(=O)O)cnn1CC1(OCCN2CCS(=O)(=O)CC2)CCCCC1` [Example 167, 6-[8-(1,3-benzothiazol-2-ylcarbamoyl)-3,4-dihydroisoquinolin-2(1H)-yl]-3-[1-({1-[2-(1,1-dioxidothiomorpholin-4-yl)ethoxy]cyclohexyl}methyl)-5-methyl-1H-pyrazol-4-yl]pyridine-2-carboxylic acid]: the EC50 in assay [1] (Mus musculus) came out at 0.081 µM. Moreover, in assay [2], the inhibition constant (Ki) is under 0.0001 µM.

`O=C(Nc1nc2ccccc2s1)c1cccc2c1CN(c1ccc(-c3cnn(CC4CCNCC4)c3)c(C(=O)O)n1)CC2` [Example 135, 6-[8-(1,3-benzothiazol-2-ylcarbamoyl)-3,4-dihydroisoquinolin-2(1H)-yl]-3-[1-(piperidin-4-ylmethyl)-1H-pyrazol-4-yl]pyridine-2-carboxylic acid]: in assay [1] (Mus musculus), the EC50 is over 1 µM. Moreover, the Ki in assay [2] was found to be 0.078 µM.

As for `O=C(Nc1nc2ccccc2s1)c1cccc2c1CN(c1ccc(-c3ccnc(OC4CCCCC4)c3)c(C(=O)O)n1)CC2` [Example 139, 6-[8-(1,3-benzothiazol-2-ylcarbamoyl)-3,4-dihydroisoquinolin-2(1H)-yl]-2'-(cyclohexyloxy)-3,4'-bipyridine-2-carboxylic acid], in assay [1] (Mus musculus), the EC50 was over 1 µM. Moreover, in assay [2], the Ki is 0.0004 µM.

Consider `O=C(Nc1nc2ccccc2s1)c1cccc2c1CN(c1ccc(-c3cccc(Cc4ccccc4)c3)c(C(=O)O)n1)CC2` [Example 106, 6-[8-(1,3-benzothiazol-2-ylcarbamoyl)-3,4-dihydroisoquinolin-2(1H)-yl]-3-(3-benzylphenyl)pyridine-2-carboxylic acid], for which the EC50 in assay [1] (Mus musculus) was determined as 0.234 µM. Further, the Ki in assay [2] was 0.0001 µM.

For the molecule `N#Cc1cccc(Cn2cc(-c3ccc(N4CCc5cccc(C(=O)Nc6nc7ccccc7s6)c5C4)nc3C(=O)O)cn2)c1` [Example 24, 6-[8-(1,3-benzothiazol-2-ylcarbamoyl)-3,4-dihydroisoquinolin-2(1H)-yl]-3-[1-(3-cyanobenzyl)-1H-pyrazol-4-yl]pyridine-2-carboxylic acid], the EC50 in assay [1] was over 1 µM. In assay [2], the inhibition constant (Ki) stood at 0.064 µM.

Turning to `O=C(Nc1nc2ccccc2s1)c1cccc2c1CN(c1ccc(-c3cnn(Cc4cccc(O)c4)c3)c(C(=O)O)n1)CC2` [Example 17, 6-[8-(1,3-benzothiazol-2-ylcarbamoyl)-3,4-dihydroisoquinolin-2(1H)-yl]-3-[1-(3-hydroxybenzyl)-1H-pyrazol-4-yl]pyridine-2-carboxylic acid], the EC50 in assay [1] was over 1 µM. Moreover, the Ki in assay [2] turned out to be 0.031 µM.

Turning to `O=C(Nc1nc2ccccc2s1)c1cccc2c1CN(c1ccc(-c3cnn(Cc4ccccc4[N+](=O)[O-])c3)c(C(=O)O)n1)CC2` [Example 57, 6-[8-(1,3-benzothiazol-2-ylcarbamoyl)-3,4-dihydroisoquinolin-2(1H)-yl]-3-[1-(2-nitrobenzyl)-1H-pyrazol-4-yl]pyridine-2-carboxylic acid], the EC50 in assay [1] (Mus musculus) stood at 0.741 µM. In assay [2], the Ki is 0.014 µM.

With `O=C(Nc1nc2ccccc2s1)c1cccc2c1CN(c1ccc(-c3cnn(CC4CCCCO4)c3)c(C(=O)O)n1)CC2` (stereo not shown) [Example 149, 6-[8-(1,3-benzothiazol-2-ylcarbamoyl)-3,4-dihydroisoquinolin-2(1H)-yl]-3-[1-(tetrahydro-2H-pyran-2-ylmethyl)-1H-pyrazol-4-yl]pyridine-2-carboxylic acid], in assay [1] (Mus musculus), the EC50 was found to be 0.986 µM.

In the case of “6-[8-(1,3-benzothiazol-2-ylcarbamoyl)-3,4-dihydroisoquinolin-2(1H)-yl]-3-(5-methyl-1-{[6-(pyrrolidin-1-yl)pyridin-2-yl]methyl}-1H-pyrazol-4-yl)pyridine-2-carboxylic acid and 6-(8-(1,3-benzothiazol-2-ylcarbamoyl)-3,4-dihydroisoquinolin-2(1H)-yl)-3-(3-methyl-1-((6-(pyrrolidin-1-yl)pyridin-2-yl)methyl)-1H-pyrazol-4-yl)pyridine-2-carboxylic acid [Example 32]”, the EC50 in assay [1] was determined as 0.216 µM.

For `Cc1c(Oc2ccccc2)cccc1-c1ccc(N2CCc3cccc(C(=O)Nc4nc5ccccc5s4)c3C2)nc1C(=O)O` [Example 110, 6-[8-(1,3-benzothiazol-2-ylcarbamoyl)-3,4-dihydroisoquinolin-2(1H)-yl]-3-(2-methyl-3-phenoxyphenyl)pyridine-2-carboxylic acid], the EC50 in assay [1] (Mus musculus) came to 0.09 µM.

Turning to `Cc1c(-c2ccc(N3CCc4cccc(C(=O)Nc5nc6ccccc6s5)c4C3)nc2C(=O)O)cccc1N(C)C1CCCC(C)(C)C1` (stereo not shown) [Example 159, 6-[8-(1,3-benzothiazol-2-ylcarbamoyl)-3,4-dihydroisoquinolin-2(1H)-yl]-3-{3-[(3,3-dimethylcyclohexyl)(methyl)amino]-2-methylphenyl}pyridine-2-carboxylic acid], the EC50 in assay [1] (Mus musculus) was found to be 0.031 µM.

Regarding `CN(c1nccc(-c2ccc(N3CCc4cccc(C(=O)Nc5nc6ccccc6s5)c4C3)nc2C(=O)O)c1C#N)C1CCCCC1` [Example 164, 6-[8-(1,3-benzothiazol-2-ylcarbamoyl)-3,4-dihydroisoquinolin-2(1H)-yl]-3'-cyano-2'-[cyclohexyl(methyl)amino]-3,4'-bipyridine-2-carboxylic acid], the EC50 in assay [1] (Mus musculus) stood at 0.308 µM.

Turning to `CN(c1cccc(-c2ccc(N3CCc4cccc(C(=O)Nc5nc6ccccc6s5)c4C3)nc2C(=O)O)c1C#N)S(=O)(=O)C1CCCCC1` [Example 181, 6-[8-(1,3-benzothiazol-2-ylcarbamoyl)-3,4-dihydroisoquinolin-2(1H)-yl]-3-{2-cyano-3-[(cyclohexylsulfonyl)(methyl)amino]phenyl}pyridine-2-carboxylic acid], the EC50 in assay [1] (Mus musculus) was 0.241 µM.
